Experimental data as given in patent US20070049518A1, “Novel method of treatment of inflammatory skin conditions” (priority 2005, published 2007).

How the values were obtained:
[1] = target: T1, metalloprotease (aureolysin) activity in Staphylococcus aureus 8325-4 culture supernatants (Staphylococcus aureus, UniProt P81177); assay: Metalloprotease activity in S. aureus culture supernatants; format: biochemical
T1 construct: 4 μl S. aureus culture supernatant; endogenous in cells; host or cells: Staphylococcus aureus 8325-4 (culture supernatant)
Procedure: The culture was then centrifuged to remove the cells and the supernatant stored at −70° C. for subsequent use. […] Activity was expressed as the rate of increase in fluorescence as a function of time.

[2] = target: T2, recombinant human ADAM17 (Homo sapiens, UniProt P78536); assay: Selectivity profile, ADAM17; format: biochemical
T2 construct: purchased R&D Systems Inc

[3] = target: T3, human MMP-2 (Homo sapiens, UniProt P08253); assay: MMP enzyme inhibition assay, MMP-2; format: biochemical; settings: pH 7.5, 37° C., 1 hour
T3 construct: purchased Calbiochem
T3 sequence (P08253 110-660): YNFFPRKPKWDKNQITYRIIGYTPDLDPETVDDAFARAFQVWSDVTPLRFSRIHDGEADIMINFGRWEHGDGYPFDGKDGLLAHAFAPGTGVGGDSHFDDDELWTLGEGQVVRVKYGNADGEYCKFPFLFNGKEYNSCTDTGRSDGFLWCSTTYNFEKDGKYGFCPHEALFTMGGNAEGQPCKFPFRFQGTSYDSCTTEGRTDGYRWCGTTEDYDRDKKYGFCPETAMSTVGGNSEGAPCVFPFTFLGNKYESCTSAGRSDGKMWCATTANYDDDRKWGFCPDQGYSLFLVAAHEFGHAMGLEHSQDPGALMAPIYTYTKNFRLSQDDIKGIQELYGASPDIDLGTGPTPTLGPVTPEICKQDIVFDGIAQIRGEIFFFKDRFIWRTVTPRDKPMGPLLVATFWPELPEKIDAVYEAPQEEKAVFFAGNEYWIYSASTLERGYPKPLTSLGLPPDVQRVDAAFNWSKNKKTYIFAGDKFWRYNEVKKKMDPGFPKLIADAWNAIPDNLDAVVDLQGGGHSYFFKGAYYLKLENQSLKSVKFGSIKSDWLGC

[4] = target: T4, purified aureolysin type II (Staphylococcus aureus, UniProt P81177); assay: Aureolysin enzyme inhibition assay, type II; format: biochemical; settings: pH 6.8, 37° C., 1 hour; read-out: IC50 value Aureolysin type II
T4 sequence (P81177 1-509): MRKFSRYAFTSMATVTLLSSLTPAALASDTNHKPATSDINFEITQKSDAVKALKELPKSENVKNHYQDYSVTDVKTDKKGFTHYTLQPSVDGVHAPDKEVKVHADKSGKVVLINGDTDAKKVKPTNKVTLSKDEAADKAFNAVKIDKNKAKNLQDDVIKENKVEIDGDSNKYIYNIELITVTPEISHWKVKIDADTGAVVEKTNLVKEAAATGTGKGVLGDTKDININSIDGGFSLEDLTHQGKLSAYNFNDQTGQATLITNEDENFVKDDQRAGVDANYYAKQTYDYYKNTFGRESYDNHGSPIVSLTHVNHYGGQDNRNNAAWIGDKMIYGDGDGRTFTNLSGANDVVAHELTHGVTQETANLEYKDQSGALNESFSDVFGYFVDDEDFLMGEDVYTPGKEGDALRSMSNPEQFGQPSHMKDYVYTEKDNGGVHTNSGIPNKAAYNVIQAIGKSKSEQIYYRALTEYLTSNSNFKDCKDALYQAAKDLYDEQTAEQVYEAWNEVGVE

[5] = target: T5, staphopain A (Staphylococcus aureus, UniProt P81297); assay: Selectivity profile, staphopain A; format: biochemical; settings: read-out: inhibition at 0.1 mM, Staphopain A
T5 construct: purchased BioCentrum Ltd
Procedure: Inhibitory activity was tested in reaction mixtures (0.1 ml) containing 2% (v/v) DMSO vehicle±compound plus additions as follows. V8 protease: 90 mM MOPS (sodium) buffer pH 7.0, […] calcium chloride, 0.045% Brij 35, 10 μM Mca-Leu-Glu-Val-Asp-Gly-Trp-Lys(Dnp)-amide (Bachem) and V8 (BioCentrum Ltd; 30 ng). Staphopain A and B: 90 mM MOPS (sodium) buffer pH 7.0, 1.8 mM cysteine-HCl (pH-adjusted with NaOH), 0.045% Brij 35, 0.1 mM Z-Phe-Arg-AMC hydrochloride (Bachem) and staphopain A or B (BioCentrum Ltd; 30 ng). Human kallikrein 5: 0.1M sodium phosphate buffer pH 8.0, 0.045% Brij 35, 0.1 mM Boc-Val-Pro-Arg-AMC (Sigma) and recombinant human kallikrein 5 (R&D Systems Inc; 6 ng). Human kallikrein 7: 72 mM Tris-HCl pH 8.0, 0.033% Brij 35, 1.2 mM S-2586 (Chromogenix Instrumentation Laboratory SpA) and recombinant human kallikrein 7 (R&D Systems Inc; 0.6 μg) that had been thermolysin-activated according to the manufacturer's instructions. Human angiotensin-converting enzyme (ACE): 45 mM MES (sodium) buffer pH 6.5, 0.045% Brij 35, 10 μM Mca-[…]Dnp)-OH(R&D Systems Inc) and recombinant human ACE (R&D Systems Inc; 1.3 ng). Human cathepsin D: 0.1M sodium acetate buffer pH 3.5, 0.2M sodium chloride, 0.045% Brij 35, 10 μM Mca-Pro-Leu-Gly-Leu-Dap(Dnp)-Ala-Arg-amide (Bachem) and recombinant human cathepsin D (R&D Systems Inc; 8 ng) activated according to the manufacturer's instructions. […]

[6] = tested on: S. aureus 8325-4; assay: S. aureus growth by turbidometry in micro-titre plates; format: cell-based, Staphylococcus aureus; settings: for inhibition at 100 µM: Staphylococcus aureus, 83254, growth inhibition, overnight, absorbance 620 nm, read-out: Inhibition at 0.1 mM
Procedure: Tryptic soy broth (0.18 ml) containing S. aureus 8325-4 (approximately 10^5 cells) was mixed with 20 μl 20% (v/v) DMSO vehicle±compound in the wells of a flat-bottomed clear polystyrene 96-well micro-titre plate. The plate was incubated overnight at 37° C./220 rpm and the absorbance measured at 620 nm the following day.

T5 sequence (P81297 215-388): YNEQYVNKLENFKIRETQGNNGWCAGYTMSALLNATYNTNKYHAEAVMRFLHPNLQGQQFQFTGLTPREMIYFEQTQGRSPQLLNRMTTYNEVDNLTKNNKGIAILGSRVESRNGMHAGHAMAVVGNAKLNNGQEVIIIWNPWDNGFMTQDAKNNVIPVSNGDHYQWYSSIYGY
T2 sequence (P78536 215-824): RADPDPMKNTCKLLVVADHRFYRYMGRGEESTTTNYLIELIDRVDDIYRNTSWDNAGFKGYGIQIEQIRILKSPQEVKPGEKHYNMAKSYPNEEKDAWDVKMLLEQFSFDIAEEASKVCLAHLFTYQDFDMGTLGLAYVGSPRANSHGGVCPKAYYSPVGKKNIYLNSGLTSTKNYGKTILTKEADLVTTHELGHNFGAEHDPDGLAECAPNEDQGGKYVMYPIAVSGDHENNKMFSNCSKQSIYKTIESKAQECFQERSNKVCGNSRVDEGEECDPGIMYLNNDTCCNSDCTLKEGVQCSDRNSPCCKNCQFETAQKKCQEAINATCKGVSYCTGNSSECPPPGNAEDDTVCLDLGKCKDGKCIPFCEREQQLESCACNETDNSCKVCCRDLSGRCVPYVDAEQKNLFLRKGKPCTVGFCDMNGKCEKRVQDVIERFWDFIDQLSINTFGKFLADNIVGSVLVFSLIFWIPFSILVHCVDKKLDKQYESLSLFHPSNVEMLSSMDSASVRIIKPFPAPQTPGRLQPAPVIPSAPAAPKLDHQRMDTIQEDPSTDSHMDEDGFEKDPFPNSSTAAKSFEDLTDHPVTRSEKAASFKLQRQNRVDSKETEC

SMILES | IC50 [1] | IC50 [2] | IC50 [3] | IC50 [4] | inhibition at 100 µM [5] | inhibition at 100 µM [6] | anti-bacterial activity (in words) ([6]; data in Tables 10 and 11)
CNC(=O)[C@@H](NC(=O)[C@@H](CC(=O)NO)CC(C)C)C(C)(C)C [Compound 11, (R)—N1-((S)-3,3-dimethyl-1-(methylamino)-1-oxobutan-2-yl)-N4-hydroxy-2-isobutylsuccinamide] | 3.7 µM | 0.025 µM | 0.0019 µM | 2.4 µM | 5% | 2% | not anti-bacterial
CNC(=O)[C@@H](NC(=O)[C@H](CC(=O)NO)CC(C)C)C(C)(C)C [Compound 12, (S)—N1-((S)-3,3-dimethyl-1-(methylamino)-1-oxobutan-2-yl)-N4-hydroxy-2-isobutylsuccinamide] | 4.3 µM | 79 µM | 2.7 µM | 2.2 µM | 0% | 0% | 
